In brackets after ≈: the same amount, converted by molar mass.
Columns and labels:
[1] = tested on: Acinetobacter calcoaceticus 15473A; assay: Minimum inhibitory concentration (agar 2-fold dilution); type: cell-based; conditions: A. calcoaceticus 15473A, Muller-Hinton agar, 37° C., 20 hours, read-out: Minimum Inhibitory Concentration
Method in brief: (§1)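 Agar dilution method: compound incorporated into Mueller-Hinton medium at 2-fold steps, bacteria inoculated from 10^7 CFU/ml suspension, growth assessed after 20 h incubation at 37° C.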

[2] = tested on: Citrobacter diversus 2046E; assay: as above; type: cell-based; conditions: Citrobacter koseri; C. diversus 2046E; Muller-Hinton agar, 37° C., 20 hours; read-out: Minimum Inhibitory Concentration
Method in brief: as §1

[3] = tested on: Enterobacter cloacae IND + VE 1194E; assay: as above; type: cell-based; conditions: E. cloacae IND + VE 1194E, Muller-Hinton agar, 37° C., 20 hours, read-out: Minimum Inhibitory Concentration
Method in brief: as §1

[4] = tested on: Enterobacter cloacae P99; assay: as above; type: cell-based; conditions: P99, 20 h, read-out: Minimum Inhibitory Concentration
Method in brief: (§2)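 Test strains, suspended at 10^7 CFU per ml, are inoculated onto Mueller-Hinton agar carrying doubling dilutions of compound.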

[5] = tested on: Escherichia coli 10536; assay: as above; type: cell-based; conditions: Escherichia coli; E. coli 10536; Muller-Hinton agar, 37° C., 20 hours; read-out: Minimum Inhibitory Concentration
Method in brief: as §1

[6] = tested on: Escherichia coli 3190Y; assay: as above; type: cell-based; conditions: E. coli 3190Y, Muller-Hinton agar, 37° C., 20 hours, read-out: Minimum Inhibitory Concentration
Method in brief: as §1

[7] = tested on: Escherichia coli 851E; assay: as above; type: cell-based; conditions: E. coli 851E, Muller-Hinton agar, 37° C., 20 hours
Method in brief: as §1

[8] = tested on: Escherichia coli TEM1 1193E; assay: as above; type: cell-based; conditions: TEM11193E, 20 h, read-out: Minimum Inhibitory Concentration
Method in brief: as §2

[9] = tested on: Escherichia coli TEM3 3455E; assay: as above; type: cell-based; conditions: TEM33455E, 20 h, read-out: Minimum Inhibitory Concentration
Method in brief: as §2

[10] = tested on: Escherichia coli TEM5 3739E; assay: as above; type: cell-based; conditions: TEM53739E, 20 h, read-out: Minimum Inhibitory Concentration
Method in brief: as §2

[11] = tested on: Escherichia coli TEM7 3457E; assay: as above; type: cell-based; conditions: TEM73457E, 20 h, read-out: Minimum Inhibitory Concentration
Method in brief: as §2

[12] = tested on: Escherichia coli TEM9 2639E; assay: as above; type: cell-based; conditions: TEM92639E, 20 h, read-out: Minimum Inhibitory Concentration
Method in brief: as §2

[13] = tested on: Klebsiella aerogenes K1 + 1082E; assay: as above; type: cell-based; conditions: 20 h, read-out: Minimum Inhibitory Concentration
Method in brief: as §2

[14] = tested on: Klebsiella aerogenes SHV-1 1976E; assay: as above; type: cell-based; conditions: SHV11976E, K. aerogenes SHV-1 1976E, Muller-Hinton agar, 37° C., 20 hours
Method in brief: as §1

[15] = tested on: Proteus vulgaris 6059A; assay: as above; type: cell-based; conditions: P. vulgaris 6059A, Muller-Hinton agar, 37° C., 20 hours, read-out: Minimum Inhibitory Concentration
Method in brief: as §1

[16] = tested on: Pseudomonas aeruginosa 10145; assay: as above; type: cell-based; conditions: Pseudomonas aeruginosa; P. aeruginosa 10145; Muller-Hinton agar, 37° C., 20 hours; read-out: Minimum Inhibitory Concentration
Method in brief: as §1

[17] = tested on: Pseudomonas aeruginosa 1912E; assay: as above; type: cell-based; conditions: P. aeruginosa 1912E, Muller-Hinton agar, 37° C., 20 hours, read-out: Minimum Inhibitory Concentration
Method in brief: as §1

[18] = tested on: Pseudomonas aeruginosa 6065; assay: as above; type: cell-based; conditions: Pseudomonas aeruginosa; P. aeruginosa 6065; Muller-Hinton agar, 37° C., 20 hours; read-out: Minimum Inhibitory Concentration
Method in brief: as §1

[19] = tested on: Salmonella typhimurium 14028A; assay: as above; type: cell-based; conditions: Salmonella enterica; S. typhimurium 14028A; Muller-Hinton agar, 37° C., 20 hours; read-out: Minimum Inhibitory Concentration
Method in brief: as §1

[20] = tested on: Serratia marcescens 1826E; assay: as above; type: cell-based; conditions: S. marcescens 1826E, Muller-Hinton agar, 37° C., 20 hours, read-out: Minimum Inhibitory Concentration
Method in brief: as §1

[21] = tested on: Staphylococcus aureus 241; assay: as above; type: cell-based; conditions: Staphylococcus aureus; S. aureus 241; Muller-Hinton agar, 37° C., 20 hours; read-out: Minimum Inhibitory Concentration
Method in brief: as §1

[22] = tested on: Staphylococcus aureus 6538P; assay: as above; type: cell-based; conditions: S. aureus 6538P, Muller-Hinton agar, 37° C., 20 hours, read-out: Minimum Inhibitory Concentration
Method in brief: as §1

[23] = tested on: Staphylococcus aureus 77; assay: as above; type: cell-based; conditions: Staphylococcus aureus; S. aureus 77; Muller-Hinton agar, 37° C., 20 hours; read-out: Minimum Inhibitory Concentration
Method in brief: as §1

[24] = tested on: Staphylococcus aureus epidermidis 887E; assay: as above; type: cell-based; conditions: S. aureus epidermidis 887E, Muller-Hinton agar, 37° C., 20 hours, read-out: Minimum Inhibitory Concentration
Method in brief: as §1

[25] = tested on: Staphylococcus aureus giorgio; assay: as above; type: cell-based; conditions: S. aureus giorgio, Muller-Hinton agar, 37° C., 20 hours, read-out: Minimum Inhibitory Concentration
Method in brief: as §1

[26] = tested on: Streptococcus faecalis 29212A; assay: as above; type: cell-based; conditions: Enterococcus faecalis; S. faecalis 29212A; Muller-Hinton agar, 37° C., 20 hours; read-out: Minimum Inhibitory Concentration
Method in brief: as §1

[27] = Pharmacokinetic properties in rats (blood concentration by agar well biological assay); parameters: species or system SD rats (male); conditions: rat, in vivo, iv, 20 mg/kg
Procedure: The pharmacokinetic properties of the compound of the present invention were determined using SD rats (.male.) weighing 230±10 g. Specifically,the test samples were injected into femoral vein in an amount of 20 mg/kg to 4 to 5 test animals. Blood was taken from femoral vein 1, 2.5, 5, 10, 20, 40, 60, 120 and 180 minutes after administration and then subjected to a biological assay using agar well method to measure the blood concentration.

Question: What does the source list for `Nc1nc(/C(=N/O[C@H](C(=O)O)c2ccc(O)c(O)c2)C(=O)N[C@@H]2C(=O)N3C(C(=O)[O-])=C(/C=C/C[n+]4cnc(N)c(N)c4N)CS[C@H]23)cs1` [Compound I-5a, 7-[(Z)-2-(2-aminothiazol-4-yl)-2-(α-carboxy-3,4-dihydroxybenzyloxyimino)acetamido]-3-[(E)-3-(4,5,6-triaminopyrimidinium-1-yl)-1-propen-1-yl]-3-cephem-4-carboxylate]?
Answer: MIC [1]: 0.5 µg/mL (≈ 0.716 µM); MIC [2]: 0.13 µg/mL (≈ 0.186 µM); MIC [3]: 1 µg/mL; MIC [4]: 8 µg/mL (≈ 11.4 µM); MIC [5]: 0.016 µg/mL (≈ 0.0229 µM); MIC [6]: 0.063 µg/mL (≈ 0.0902 µM); MIC [7]: 0.063 µg/mL (≈ 0.0902 µM); MIC [8]: 0.063 µg/mL (≈ 0.0902 µM); MIC [9]: 0.063 µg/mL (≈ 0.0902 µM); MIC [10]: 0.5 µg/mL (≈ 0.716 µM); MIC [11]: 0.031 µg/mL (≈ 0.0444 µM); MIC [12]: 1 µg/mL (≈ 1.43 µM); MIC [13]: 0.063 µg/mL (≈ 0.0902 µM); MIC [14]: 0.5 µg/mL (≈ 0.716 µM); MIC [15]: 0.063 µg/mL (≈ 0.0902 µM); MIC [16]: 0.25 µg/mL (≈ 0.358 µM); MIC [17]: 0.5 µg/mL (≈ 0.716 µM); MIC [18]: 4 µg/mL (≈ 5.72 µM); MIC [19]: 0.03 µg/mL (≈ 0.0429 µM); MIC [20]: 0.5 µg/mL (≈ 0.716 µM); MIC [21]: 128 µg/mL (≈ 183 µM); MIC [22]: 0.5 µg/mL (≈ 0.716 µM); MIC [23]: 2 µg/mL (≈ 2.86 µM); MIC [24]: 64 µg/mL (≈ 91.6 µM); MIC [25]: 0.25 µg/mL (≈ 0.358 µM); MIC [26]: 4 µg/mL (≈ 5.72 µM); AUC [27]: 49600 ng·h/mL; half-life [27]: 41 min

From patent US5541175A, “Cephalosporin antibiotics” (Lucky, Ltd., priority 1993, dated 1996)
